This passage reports IC50 results from patent US20220281863A1, “COMPOUNDS, COMPOSITIONS AND METHODS OF TREATING DISORDERS” (Reverie Labs, Inc., priority 2019, published 2022).

The experiment addresses T1, CDK9/CycTI (Homo sapiens, UniProt P50750).
T1 construct: purchased Carna biosciences 04-110
In words: In vitro kinase assay (ADP-Glo Kinase Assay Kit), CDK9/CycTI. The settings on record: 30 ng CDK9/CycTI, 30 μM CDKtide, 10 μM ATP, 2 hours at room temperature; 8 to 10-point dose response (Tier2); read-out: IC50 Score. It counts as biochemical. Here is the method:
In vitro kinase assay was performed in white, 384-low volume plates in 5 μl reaction volume consisting of 30 ng CDK9/CycTI (Carna biosciences #04-110), 30 μM CDKtide (Signalchem #C06-58) and 10 μM ATP made in reaction buffer (40 mM Tris, pH 7.5; 20 mM MgCl2; 0.1 mg/ml BSA; 50 μM DTT) at 1 μM & 10 μM compound concentration for Tier1 assay and 8 to 10-point dose response curve for Tier2 assay. After 2 hours of incubation at room temperature, the amounts of […] in the kinase reaction were quantified using ADP-Glo™ Kinase Assay Kit (Promega #V9102). Briefly, 5 μl of ADP-Glo™ reagent was added to stop the kinase reaction and plate was incubated for 40 minutes at room temperature. Subsequently, 10 μl of Kinase Detection Reagent was added and luminescence was recorded after 30 minutes of incubation at room temperature.
The inhibition of kinase activity was determined relative to positive control (2% DMSO) and IC50 was calculated using GraphPad prism software (four parameter-variable slope equation).
On the technique in general: ADP-Glo turns the ADP formed in a reaction into a luminescent signal.

Molecules are shown by their SMILES. pIC50: −log10 of the molar value.

Broadly, the pIC50 is the negative decadic logarithm of the IC50, by convention in mol/L.

T1 sequence (P50750 whole entry): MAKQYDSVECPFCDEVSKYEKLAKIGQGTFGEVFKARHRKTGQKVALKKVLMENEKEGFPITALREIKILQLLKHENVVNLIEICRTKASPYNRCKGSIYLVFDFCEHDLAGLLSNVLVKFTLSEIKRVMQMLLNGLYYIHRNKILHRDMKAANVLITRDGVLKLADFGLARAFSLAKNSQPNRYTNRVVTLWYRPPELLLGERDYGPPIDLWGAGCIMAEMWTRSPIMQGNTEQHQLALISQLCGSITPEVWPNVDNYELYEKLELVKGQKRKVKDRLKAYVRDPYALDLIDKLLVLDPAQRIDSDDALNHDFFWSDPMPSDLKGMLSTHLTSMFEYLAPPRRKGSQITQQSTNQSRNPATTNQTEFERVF
T1 sequence (O60563 whole entry partner): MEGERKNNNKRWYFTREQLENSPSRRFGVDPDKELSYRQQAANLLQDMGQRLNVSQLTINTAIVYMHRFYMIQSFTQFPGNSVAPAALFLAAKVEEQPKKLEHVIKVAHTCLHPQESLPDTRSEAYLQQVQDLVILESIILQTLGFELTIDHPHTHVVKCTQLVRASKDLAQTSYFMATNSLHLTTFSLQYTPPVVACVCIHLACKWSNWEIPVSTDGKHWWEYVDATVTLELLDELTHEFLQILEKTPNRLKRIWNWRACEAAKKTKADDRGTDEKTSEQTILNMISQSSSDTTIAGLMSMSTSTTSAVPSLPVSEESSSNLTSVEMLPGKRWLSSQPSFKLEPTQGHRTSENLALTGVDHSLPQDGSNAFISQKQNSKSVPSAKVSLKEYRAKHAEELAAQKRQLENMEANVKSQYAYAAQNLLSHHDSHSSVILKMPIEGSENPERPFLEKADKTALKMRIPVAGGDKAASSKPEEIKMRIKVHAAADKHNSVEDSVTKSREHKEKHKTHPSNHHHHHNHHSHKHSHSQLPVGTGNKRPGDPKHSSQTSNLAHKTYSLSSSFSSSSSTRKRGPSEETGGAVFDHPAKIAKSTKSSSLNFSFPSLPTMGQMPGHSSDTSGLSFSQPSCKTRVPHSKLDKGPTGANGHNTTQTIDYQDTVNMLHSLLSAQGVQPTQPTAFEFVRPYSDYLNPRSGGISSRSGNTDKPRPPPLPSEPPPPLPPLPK

As for `CN1CC(C(=O)Nc2nc3ccc4cc(F)ccc4c3s2)C1` [Compound 29], the pIC50 is 4.70 to 6.00. As for `O=C(Nc1nc2ccc3cc(F)ccc3c2s1)c1nncs1` [Compound 80], the pIC50 is 4.70 to 6.00.

With `CC(C)(C)C(=O)N1CCC(C(=O)Nc2nc3ccc4cc(F)ccc4c3s2)CC1` [Compound 64], the negative logarithm of the IC50 (pIC50) is 6.00 to 6.30. Regarding `CC(=O)N1CCCC[C@@H]1C(=O)Nc1nc2ccc3cc(F)ccc3c2s1` [Compound 21], the pIC50 was 7.00 to 9.00. For `CC(=O)N1CCC[C@@H]1C(=O)Nc1nc2ccc3cc(F)ccc3c2s1` [Compound 4, (R)-1-acetyl-N-(7-fluoronaphtho[2,1-d]thiazol-2-yl)pyrrolidine-2-carboxamide] the value was 7.00 to 9.00. For `CN(C(=O)OC(C)(C)C)[C@@H]1CCC[C@H](C(=O)Nc2nc3ccc4cc(F)ccc4c3s2)C1` [Compound 24] the value was 4.70 to 6.00; for `CC(=O)N1CC[C@@H]1C(=O)Nc1nc2ccc3cc(F)ccc3c2s1` [Compound 69, (R)-1-acetyl-N-(7-fluoronaphtho[2,1-d]thiazol-2-yl)azetidine-2-carboxamide], 7.00 to 9.00; for `CC(=O)N1CCN(C)CC1C(=O)Nc1nc2ccc3cc(F)ccc3c2s1` (single isomer, unassigned) [Compound 66, 1-acetyl-N-(7-fluoronaphtho[2,1-d]thiazol-2-yl)-4-methylpiperazine-2-carboxamide], 4.70 to 6.00. For `N[C@H]1CCC[C@@H](C(=O)Nc2nc3ccc4cc(F)ccc4c3s2)C1` [Compound 63, (1R,3S)-3-amino-N-(7-fluoronaphtho[2,1-d]thiazol-2-yl)cyclohexane-1-carboxamide] the value was 6.30 to 7.00; for `CC(=O)N1CC[C@H]1C(=O)Nc1nc2ccc3cc(F)ccc3c2s1` [Compound 73, (S)-1-acetyl-N-(7-fluoronaphtho[2,1-d]thiazol-2-yl)azetidine-2-carboxamide], 4.70 to 6.00. Regarding `O=C(Nc1nc2ccc3cc(F)ccc3c2s1)[C@H]1CCCN1` [Compound 74], the negative logarithm of the IC50 (pIC50) was 6.00 to 6.30. Take `CC(=O)N1CCC[C@@H](C(=O)Nc2nc3ccc4cc(F)ccc4c3s2)C1` [Compound 38, 1-acetyl-N-(7-fluoronaphtho[2,1-d]thiazol-2-yl)piperidine-3-carboxamide]: the negative logarithm of the IC50 (pIC50) is 6.30 to 7.00. Under `O=C(Nc1nc2ccc3cc(F)ccc3c2s1)[C@H]1CCCCN1` [Compound 20] stands 4.70 to 6.00.

Turning to `O=C(Nc1nc2ccc3cc(F)ccc3c2s1)C1CCNC1` (single isomer, unassigned) [Compound 37, N-(7-fluoronaphtho[2,1-d]thiazol-2-yl)pyrrolidine-3-carboxamide], the negative logarithm of the IC50 (pIC50) is 7.00 to 9.00. `O=C(Nc1nc2ccc3cc(F)ccc3c2s1)[C@@H]1CCCO1` [Compound 78, (S)—N-(7-fluoronaphtho[2,1-d]thiazol-2-yl)tetrahydrofuran-2-carboxamide]: the pIC50 is 6.30 to 7.00. Under `CC(C)(C)OC(=O)N1CCC(C(=O)Nc2nc3ccc4cc(F)ccc4c3s2)CC1` [Compound 40] stands 4.70 to 6.00; under `C=CC(=O)N[C@H]1CCC[C@@H](C(=O)Nc2nc3ccc4cc(F)ccc4c3s2)C1` [Compound 33, (1R,3S)-3-acrylamido-N-(7-fluoronaphtho[2,1-d]thiazol-2-yl)cyclohexane-1-carboxamide], 6.30 to 7.00. For the molecule `O=C(Nc1nc2ccc3cc(F)ccc3c2s1)[C@H]1CCN1` [Compound 90, (R)—N-(7-fluoronaphtho[2,1-d]thiazol-2-yl)azetidine-2-carboxamide], the pIC50 is 6.00 to 6.30. For `CC(C)(C)OC(=O)N1CC[C@@H](C(=O)Nc2nc3ccc4cc(F)ccc4c3s2)C1` [Compound 89] the value was 4.70 to 6.00; for `CC(=O)N1CC(C(=O)Nc2nc3ccc4cc(F)ccc4c3s2)C1` [Compound 28, 1-acetyl-N-(7-fluoronaphtho[2,1-d]thiazol-2-yl)azetidine-3-carboxamide], 6.30 to 7.00; for `CC(=O)N1CCCC[C@H]1C(=O)Nc1nc2ccc3cc(F)ccc3c2s1` [Compound 27, (S)-1-acetyl-N-(7-fluoronaphtho[2,1-d]thiazol-2-yl)piperidine-2-carboxamide], 7.00 to 9.00. Regarding `CC(=O)N(C)[C@@H]1CC[C@H](C(=O)Nc2nc3ccc4cc(F)ccc4c3s2)C1` [Compound 71, (1S,3R)—N-(7-fluoronaphtho[2,1-d]thiazol-2-yl)-3-(N-methylacetamido)cyclopentane-1-carboxamide], the pIC50 is 7.00 to 9.00.

Consider `O=C(Nc1nc2ccc3cc(F)ccc3c2s1)c1ccno1` [Compound 49, N-(7-fluoronaphtho[2,1-d]thiazol-2-yl)isoxazole-5-carboxamide], for which the pIC50 was 4.70 to 6.00.

In the case of `CN1CCC(C(=O)Nc2nc3ccc4cc(F)ccc4c3s2)C1` (single isomer, unassigned) [Compound 92, N-(7-fluoronaphtho[2,1-d]thiazol-2-yl)-1-methylpyrrolidine-3-carboxamide], the negative-log IC50 (pIC50) was 7.00 to 9.00. As for `CC(C)(C)OC(=O)N[C@H]1CCC[C@H](C(=O)Nc2nc3ccc4cc(F)ccc4c3s2)C1` [Compound 46], the pIC50 is 6.00 to 6.30. For `CN1CCC(C(=O)Nc2nc3ccc4cc(F)ccc4c3s2)C1` (centres unmarked) [Compound 65, N-(7-fluoronaphtho[2,1-d]thiazol-2-yl)-1-methylpyrrolidine-3-carboxamide] the value was 6.30 to 7.00; for `CN1CCC(C(=O)Nc2nc3ccc4cc(F)ccc4c3s2)C1` (single isomer, unassigned) [Compound 48, N-(7-fluoronaphtho[2,1-d]thiazol-2-yl)-1-methylpyrrolidine-3-carboxamide], 7.00 to 9.00. Under `CC(C)(C)OC(=O)N1CC[C@@H]1C(=O)Nc1nc2ccc3cc(F)ccc3c2s1` [Compound 35, Tert-butyl (R)-2-((7-fluoronaphtho[2,1-d]thiazol-2-yl)carbamoyl)azetidine-1-carboxylate] stands 4.70 to 6.00; under `CC(C)(C)OC(=O)N1CC[C@H]1C(=O)Nc1nc2ccc3cc(F)ccc3c2s1` [Compound 84, Tert-butyl (S)-2-((7-fluoronaphtho[2,1-d]thiazol-2-yl)carbamoyl)azetidine-1-carboxylate], 4.70 to 6.00. As to `CC(=O)N(C)[C@@H]1CCC[C@H](C(=O)Nc2nc3ccc4cc(F)ccc4c3s2)C1` [Compound 22], the negative logarithm of the IC50 (pIC50) is 6.30 to 7.00.

Turning to `CC(=O)N1CCOC[C@@H]1C(=O)Nc1nc2ccc3cc(F)ccc3c2s1` [Compound 19, (R)-4-acetyl-N-(7-fluoronaphtho[2,1-d]thiazol-2-yl)morpholine-3-carboxamide], the pIC50 was 7.00 to 9.00. Under `CC(=O)N[C@@H]1CC[C@H](C(=O)Nc2nc3ccc4cc(F)ccc4c3s2)C1` [Compound 25] stands 6.00 to 6.30; under `CC(=O)N1CCC(C(=O)Nc2nc3ccc4cc(F)ccc4c3s2)C1` (single isomer, unassigned) [Compound 36, 1-acetyl-N-(7-fluoronaphtho[2,1-d]thiazol-2-yl)pyrrolidine-3-carboxamide], 7.00 to 9.00. For `CC(=O)N1CCC[C@@H]1C(=O)Nc1nc2ccc3ccccc3c2s1` [Compound 3, (R)-1-acetyl-N-(naphtho[2,1-d]thiazol-2-yl)pyrrolidine-2-carboxamide] the value was 6.30 to 7.00. Take `O=C1CC[C@H](C(=O)Nc2nc3ccc4cc(F)ccc4c3s2)N1` [Compound 7, (R)—N-(7-fluoronaphtho[2,1-d]thiazol-2-yl)-5-oxopyrrolidine-2-carboxamide]: the negative logarithm of the IC50 (pIC50) is 7.00 to 9.00. Under `O=C(Nc1nc2c(s1)-c1ccc(F)cc1CC2)[C@H]1CCC[C@@H](NS(=O)(=O)C2CC2)C1` [Compound 15-b, (1S,3R)-3-(cyclopropanesulfonamido)-N-(7-fluoro-4,5-dihydronaphtho[2,1-d]thiazol-2-yl)cyclohexane-1-carboxamide] stands 6.00 to 6.30; under `O=C(CCl)N[C@@H]1CCC[C@H](C(=O)Nc2nc3ccc4cc(F)ccc4c3s2)C1` [Compound 75], 7.00 to 9.00. Under `C=CC(=O)N1CCC[C@@H]1C(=O)Nc1nc2ccc3cc(F)ccc3c2s1` [Compound 44, (R)-1-acryloyl-N-(7-fluoronaphtho[2,1-d]thiazol-2-yl)pyrrolidine-2-carboxamide] stands 7.00 to 9.00; under `O=C1CC[C@@H](C(=O)Nc2nc3ccc4ccccc4c3s2)N1` [Compound 11, (S)—N-(naphtho[2,1-d]thiazol-2-yl)-5-oxopyrrolidine-2-carboxamide], 7.00 to 9.00; under `O=C(Nc1nc2ccc3cc(F)ccc3c2s1)[C@@H]1CCOC1` [Compound 60, (R)—N-(7-fluoronaphtho[2,1-d]thiazol-2-yl)tetrahydrofuran-3-carboxamide], 7.00 to 9.00.

For `CN(C)[C@@H]1CC[C@H](C(=O)Nc2nc3ccc4cc(F)ccc4c3s2)C1` [Compound 39], the negative logarithm of the IC50 (pIC50) is 7.00 to 9.00.

`O=C(Nc1nc2ccc3ccccc3c2s1)[C@H]1CCCN1` [Compound 2, (R)—N-(naphtho[2,1-d]thiazol-2-yl)pyrrolidine-2-carboxamide]: the pIC50 is 4.70 to 6.00.

On to `CC(C)(C)OC(=O)N1CCC[C@@H]1C(=O)Nc1nc2ccc3ccccc3c2s1` [Compound 1, tert-Butyl (R)-2-(naphtho[2,1-d]thiazol-2-ylcarbamoyl)pyrrolidine-1-carboxylate], for which the negative logarithm of the IC50 (pIC50) is 4.70 to 6.00. Turning to `O=C(Nc1nc2ccc3cc(F)ccc3c2s1)[C@H]1CCNC1` [Compound 31, (S)—N-(7-fluoronaphtho[2,1-d]thiazol-2-yl)pyrrolidine-3-carboxamide], the pIC50 was 6.30 to 7.00.
